In patent publication US7928141B2 (priority 2005, dated 2011):

What was measured:
Type in all cases: in vivo, human
Conditions in all cases: using only lidocaine
[1] = Anesthetic trial in general liposuction operations
Experimental: The above components were dissolved in a small amount (<1 mL) of distilled water and mixed homogeneously, and the mix was then diluted to 150 mL to yield the L.S.Z. solution.
50 bottles were filled each with 500 mL normal saline solution. […] The bottles were shaken respectively to mix well, yielding L.S.Z. anesthetic solution having a long duration of action.
Then, a common syringe with a 25 cm long needle was used to inject subcutaneously the above anesthetic solution in 45 sites of a […], 1.70 m in height, and 90 kg in weight. While injecting the anesthetic solution, liposuction was conducted using a liposuction tube, finally removing 18 L aspirated fat solution in total. The operation lasted for about 9 hours and the weight of the subject was reduced by 15 kg in total.

[2] = Anesthetic trial in middle area operations: liposuction in the abdomen
Experimental: The above components were dissolved in a small amount (<1 mL) of distilled water and mixed homogeneously, and the mixture was then diluted to 10 mL to yield the L.S.Z. solution.
10 bottles were filled each with 500 mL of normal saline solution. To each bottle was added 10 ml 2% lidocaine solution (as described in Example 1), and 1 mL of the L.S.Z. solution. The bottles were shaken respectively to mix well, yielding L.S.Z. anesthetic solution having a long duration of action.
[…] While injecting the anesthetic solution, liposuction was conducted using a liposuction tube, finally removing 3500 mL aspirated fat solution in total. The operation lasted 1 hour. When injecting, 3 injection points, the subcutaneous depth of 1-2 cm, and radiation injection around the injection point were chosen to form 3 anesthetic zones with a radius of 15 cm. After injection, the onset time shortened from the original about 1 min (using only lidocaine) down to about 5 sec, and the duration of analgesia prolonged from the original 4 hours (using only lidocaine) to about 9 days.

[3] = Anesthetic trial in large area operations: liposuction in the lower limb (buttock, thigh, calf)
Experimental: The above components were dissolved in a small amount (<1 mL) of distilled water and mixed homogeneously, and the mix was then diluted to 60 mL to yield the L.S.Z. solution.
20 bottles were filled each with 500 mL normal saline solution. To each bottle was added 15 mL of 2% lidocaine solution (as described in Example 1) and 3 mL of the L.S.Z. solution as prepared in this Example. The bottles were shaken respectively to mix well, yielding L.S.Z. anesthetic solution having a long duration of action.
[…] While injecting the anesthetic solution, liposuction was conducted using a liposuction tube, finally removing 6 L aspirated fat solution in total. The operation lasted for about 3 hours. When injecting, 8 injection points, the subcutaneous depth of 1-2 cm, and the radiation injection method around the injection point were chosen to form 8 anesthetic zones with a radius of 20 cm. After injection, the onset time shortened from the original about 1 min (using only lidocaine) down to around 5 sec, and the duration of analgesia prolonged from the original 4 hours (using only lidocaine) to about 9 days.

CCN(CC)CC(=O)Nc1c(C)cccc1C [lidocaine]
duration of analgesia [1]: 4 h
onset time [1]: about 1 min
duration of analgesia [2]: 4 h
onset time [2]: about 1 min
duration of analgesia [3]: 4 h
onset time [3]: about 1 min
